According to US11466044B2 (WAYNE STATE UNIVERSITY, priority 2017, dated 2022):
pIC50: −log10 of the molar value. Values after ≈ are worked out from the molar mass of the structure shown. Where two headings read alike, the source gives them in different places.

Assays:
[1] = test system: E coli carrying specific resistance determinants; assay: MIC by broth microdilution, E coli carrying specific resistance determinants; type: cell-based; details: Escherichia coli
E coli wild type = assay: MIC by broth microdilution, wild type E coli; type: cell-based; details: Escherichia coli
[2] = test system: A1555G mutant mitochondrial ribosome (human chimeric); assay: in-vitro translation assay, human chimeric ribosomes, A1555G mutant mitochondrial decoding site; type: biochemical; details: human mitochondrial decoding site with A1555G point mutation; read-out: IC50 Mitoch. A1555G
Description: The antiribosomal activity of these compounds was investigated with cell-free translation assays using both wild type bacterial ribosomes and hybrid ribosomes carrying eukaryotic decoding A sites enabling the prediction of selectivity.

P aeruginosa = assay: MIC by broth microdilution, P aeruginosa isolates; type: cell-based, Pseudomonas aeruginosa
[3] = test system: rabbit reticulocyte ribosomes; assay: in-vitro translation assay, rabbit reticulocyte ribosomes; type: biochemical; details: mammalian cytosolic ribosomes (rabbit)
[4] = test system: Enterobacter cloacae AG290; assay: MIC by broth microdilution, Enterobacter cloacae; type: cell-based; details: strain AG290 Enterobacter cloacae; read-out: MIC AG290 E. cloacae
[5] = test system: Acinetobacter baumannii pittii AG225; assay: MIC by broth microdilution, Acinetobacter baumannii; type: cell-based; details: strain AG225 Acinetobacter baumannii pittii
MRSA = assay: MIC by broth microdilution, MRSA isolates; type: cell-based; details: for MIC50 / MIC: Staphylococcus aureus, MRSA

`NC[C@@H]1O[C@H](O[C@H]2[C@@H](O)[C@H](O[C@@H]3[C@@H](O)[C@H](N)C[C@H](N)[C@H]3O[C@H]3O[C@H](CO)[C@@H](O)[C@H](O)[C@H]3N)O[C@@H]2CO)[C@H](N)[C@@H](O)[C@@H]1O` [paromomycin, reference compound] was tested, and the MIC ([1]; read-out: MIC pH415 AAC(6′)-II) was 2 to 4 mg/L (≈ 3.25 to 6.5 µM), the MIC ([1]; read-out: MIC pH421 APH(3)-I) was > 128 mg/L and the MIC ([1]; read-out: MIC pH421 E. coli APH(3′)-I) was > 128 mg/L. For the same molecule, the MIC ([1]; read-out: MIC pH422 APH(3′)-II) was > 128 mg/L, the MIC ([1]; read-out: MIC pH422 E. coli APH(3′)-II) was > 128 mg/L and the MIC ([1]; read-out: MIC pH423 APH(3′)-VI) was > 128 mg/L. For the same molecule, the MIC ([1]; read-out: MIC pH423 E. coli APH(3′)-VI) was > 128 mg/L, the MIC ([1]; read-out: MIC pH432 ANT(4′)) was 1 to 2 mg/L (≈ 1.62 to 3.25 µM) and the MIC (E coli wild type; AG006 wt, Table 2 (Example 1), read-out: MIC E coli AG006 wt) was 1 to 2 mg/L (≈ 1.62 to 3.25 µM). For the same molecule, the MIC (E coli wild type; AG102 wt, Table 2 (Example 1), read-out: MIC E coli AG102 wt) was 1 mg/L (≈ 1.62 µM), the MIC (E coli wild type; AG160 wt, Table 2 (Example 1), read-out: MIC E coli AG160 wt) was 2 to 4 mg/L (≈ 3.25 to 6.5 µM) and the MIC (E coli wild type; ATCC25922, strain AG212 E. coli (ATCC25922), read-out: MIC AG212 E. coli) was 2 to 4 mg/L (≈ 3.25 to 6.5 µM). It also gave an MIC50 (E coli wild type; BM13 (AG06) wt, Table 2A (Example 2), read-out: MIC50 E coli BM13 (AG06) wt) of 2 to 4 mg/L (≈ 3.25 to 6.5 µM), an MIC (E coli wild type; E. coli strain pH430, WT, read-out: MIC pH430 WT) of 1 to 2 mg/L (≈ 1.62 to 3.25 µM) and an MIC (E coli wild type; WT, Table 3 (Example 1), read-out: MIC WT) of 1 to 2 mg/L (≈ 1.62 to 3.25 µM). It also gave an MIC (E coli wild type; WT, Table 3 (Example 2), read-out: MIC WT) of 1 to 2 mg/L (≈ 1.62 to 3.25 µM), an MIC (E coli wild type; WT, Table 4 (Example 3), read-out: MIC E. coli WT) of 1 to 2 mg/L (≈ 1.62 to 3.25 µM) and an MIC (E coli wild type; WT, Table 5 (Example 3), read-out: MIC E. coli WT) of 1 to 2 mg/L (≈ 1.62 to 3.25 µM). For the same molecule, the MIC (E coli wild type; clinical isolate AG001, WT, read-out: MIC AG001 E. coli WT) was 2 mg/L (≈ 3.25 µM), the MIC (E coli wild type; clinical isolate AG001, Table 1 (Example 3), read-out: MIC E coli AG001) was 16 to 32 mg/L (≈ 26 to 52 µM) and the MIC (E coli wild type; clinical isolate AG003, Table 1 (Example 3), read-out: MIC E coli AG003) was 8 to 16 mg/L (≈ 13 to 26 µM). It also gave an MIC (E coli wild type; clinical isolate AG055, WT, read-out: MIC AG055 E. coli WT) of 2 mg/L (≈ 3.25 µM), an MIC (E coli wild type; clinical isolate AG055, Table 1 (Example 3), read-out: MIC E coli AG055) of 8 mg/L (≈ 13 µM) and an MIC (E coli wild type; clinical isolate AG160 WT, Table 2 (Example 4), read-out: MIC AG160 E. coli WT) of 2 to 4 mg/L (≈ 3.25 to 6.5 µM). The MIC (E coli wild type; engineered strain pH430 WT, Table 2 (Example 4), read-out: MIC pH430 E. coli WT) was 1 to 2 mg/L (≈ 1.62 to 3.25 µM), the MIC50 (E coli wild type; read-out: MIC50 E coli pH430 WT) was 1 to 2 mg/L (≈ 1.62 to 3.25 µM) and the MIC (E coli wild type; read-out: MIC E coli AG006 Wild type, AG006 Wild type, Table 2 (Example 3)) was 2 mg/L (≈ 3.25 µM). For the same molecule, the MIC (E coli wild type; read-out: MIC E coli AG104 Wild type, AG104 Wild type, Table 2 (Example 3)) was 2 mg/L (≈ 3.25 µM), the MIC50 (E coli wild type; strain AG01, Table 1 (Example 1), read-out: MIC50 E coli AG01) was 2 to 4 mg/L (≈ 3.25 to 6.5 µM) and the MIC50 (E coli wild type; strain AG01, Table 1 (Example 2), read-out: MIC50 E coli AG01) was 2 to 4 mg/L (≈ 3.25 to 6.5 µM). For the same molecule, the MIC50 (E coli wild type; strain AG03, Table 1 (Example 1), read-out: MIC50 E coli AG03) was 4 mg/L (≈ 6.5 µM), the MIC50 (E coli wild type; strain AG03, Table 1 (Example 2), read-out: MIC50 E coli AG03) was 4 mg/L (≈ 6.5 µM) and the MIC50 (E coli wild type; strain AG55, Table 1 (Example 1), read-out: MIC50 E coli AG55) was 2 to 4 mg/L (≈ 3.25 to 6.5 µM). The MIC50 (E coli wild type; strain AG55, Table 1 (Example 2), read-out: MIC50 E coli AG55) was 2 to 4 mg/L (≈ 3.25 to 6.5 µM), the pIC50 [2] was 4.82 and the MIC50 (P aeruginosa; Pseudomonas aeruginosa, read-out: MIC50 P aeruginosa AG31) was > 128 mg/L. The MIC50 (P aeruginosa; Pseudomonas aeruginosa, read-out: MIC50 P aeruginosa AG32) was > 128 mg/L, the MIC50 (P aeruginosa; Pseudomonas aeruginosa, read-out: MIC50 P aeruginosa AG33) was > 128 mg/L and the MIC50 (P aeruginosa; Pseudomonas aeruginosa, read-out: MIC50 P aeruginosa AG86) was > 128 mg/L. For the same molecule, the MIC (P aeruginosa; Pseudomonas aeruginosa, read-out: MIC AG031 P. aer. APH(3′)-II) was > 128 mg/L, the MIC (P aeruginosa; Pseudomonas aeruginosa, read-out: MIC AG032 P. aer. APH(3′)-II) was > 128 mg/L and the “MIC50 P aeruginosa AG31” value (P aeruginosa; strain AG31, Table 1 (Example 2)) was >128 mg/L. The “MIC50 P aeruginosa AG32” value (P aeruginosa; strain AG32, Table 1 (Example 2)) was >128 mg/L, the “MIC50 P aeruginosa AG33” value (P aeruginosa; strain AG33, Table 1 (Example 2)) was >128 mg/L and the “MIC50 P aeruginosa AG86” value (P aeruginosa; strain AG86, Table 1 (Example 2)) was >128 mg/L. For the same molecule, the MIC (P aeruginosa; strain AG220 Pseudomonas aeruginosa ATCC27853, read-out: MIC AG220 P. aerugin) was > 64 mg/L, the pIC50 [3] was 4.68 and the MIC [4] was 2 mg/L (≈ 3.25 µM). For the same molecule, the MIC [5] was 2 mg/L (≈ 3.25 µM), the MIC50 (MRSA; read-out: MIC50 MRSA AG39) was > 256 mg/L and the MIC50 (MRSA; read-out: MIC50 MRSA AG42) was > 256 mg/L. For the same molecule, the MIC (MRSA; read-out: MIC AG039 MRSA AAC(6′)-I ANT(4′)-I) was > 256 mg/L, the MIC (MRSA; read-out: MIC AG042 MRSA AAC(6′)-I ANT(4′)-I APH(2′)) was > 256 mg/L and the MIC (MRSA; read-out: MIC MRSA AG039) was > 256 mg/L. The MIC (MRSA; read-out: MIC MRSA AG042) was > 256 mg/L, the MIC50 (MRSA; strain AG38, Table 1 (Example 1), read-out: MIC50 MRSA AG38) was 4 mg/L (≈ 6.5 µM) and the MIC50 (MRSA; strain AG38, Table 1 (Example 2), read-out: MIC50 MRSA AG38) was 4 mg/L (≈ 6.5 µM). The MIC50 (MRSA; strain AG44, Table 1 (Example 1), read-out: MIC50 MRSA AG44) was 4 to 8 mg/L (≈ 6.5 to 13 µM), the MIC50 (MRSA; strain AG44, Table 1 (Example 2), read-out: MIC50 MRSA AG44) was 4 to 8 mg/L (≈ 6.5 to 13 µM) and the MIC (MRSA; clinical isolate AG038, Table 1 (Example 3), read-out: MIC MRSA AG038) was 4 mg/L (≈ 6.5 µM). It also gave an MIC (MRSA; clinical isolate AG038, read-out: MIC AG038 MRSA) of 4 mg/L (≈ 6.5 µM), an MIC (MRSA; clinical isolate AG044, Table 1 (Example 3), read-out: MIC MRSA AG044) of 4 to 8 mg/L (≈ 6.5 to 13 µM) and an MIC (MRSA; clinical isolate AG044, read-out: MIC AG044 MRSA) of 4 to 8 mg/L (≈ 6.5 to 13 µM). The “MIC50 MRSA AG39” value (MRSA; strain AG39, Table 1 (Example 2)) was >256 mg/L and the “MIC50 MRSA AG42” value (MRSA; strain AG42, Table 1 (Example 2)) was >256 mg/L.
